Experimental data as given in PMC12483982, “MTS1 regulates rice plant architecture by mediating phosphoinositide metabolism” (Plant Biotechnology Journal, 2025).

Target: T1, NGR5 (GST-NGR5) (Oryza sativa, UniProt X5HYT8)
T1 construct: gene SMOS1; recombinant GST fusion from E. coli Rosetta (DE3), glutathione sepharose, GST tag kept; NT-647 NHS labelled
T1 sequence (X5HYT8 1-425): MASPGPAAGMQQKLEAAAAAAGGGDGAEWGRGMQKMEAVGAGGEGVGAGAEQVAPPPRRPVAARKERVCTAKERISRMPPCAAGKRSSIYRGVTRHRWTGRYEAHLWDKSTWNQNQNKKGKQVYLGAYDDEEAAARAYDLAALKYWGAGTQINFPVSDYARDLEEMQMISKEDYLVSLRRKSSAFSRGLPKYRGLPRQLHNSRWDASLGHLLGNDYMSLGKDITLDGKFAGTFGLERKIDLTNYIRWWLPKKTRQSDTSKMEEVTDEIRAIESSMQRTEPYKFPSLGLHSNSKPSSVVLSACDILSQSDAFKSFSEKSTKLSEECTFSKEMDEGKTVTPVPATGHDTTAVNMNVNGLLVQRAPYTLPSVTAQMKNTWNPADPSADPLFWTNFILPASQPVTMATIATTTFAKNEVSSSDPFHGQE
Test: microscale thermophoresis (NT.[…])
Assay type: binding
Conditions: NT-647 NHS-labelled GST-NGR5 10 nM; phosphate buffer with 0.005% Tween-20; 30 min; also seen in lipid-protein overlay

Kd: 1140 ± 600 nM
Substance: phosphatidylinositol 4-phosphate [PI4P]
